TGI data for 15 molecules are collected here from PubChem BioAssay (NCI).

Assay in all cases: inhibition of tumour cell growth, NCI panel, 48 h
Experiment [1] deals with HOP-62 NSCLC.
The test system of experiment [2] is SK-MEL-2 melanoma.
Experiment [3] concerns RPMI-8226 leukemia.
The subject of experiment [4] is OVCAR-4 ovarian.
Experiment [5] concerns A498 renal.
Experiment [6] deals with HCT-15 colon.
Experiment [7] concerns OVCAR-5 ovarian.
Experiment [8] relates to T-47D breast.
The test system of experiment [9] is SF-295 CNS.
Experiment [10] has as its system DU-145 prostate.

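48-hour exposure; five concentrations; linearly interpolated endpoints. TGI is the concentration that stops growth completely.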 Bounds are passed on as bounds.

As to `O=C(O[C@@H](/C=C/c1ccccc1)P1(=O)N(Cc2ccccc2)[C@@H]2CCCC[C@H]2N1Cc1ccccc1)c1ccccc1`, the TGI in experiment [1] was above 100 µM; in experiment [2], 5.42 µM; in experiment [3] it was 6.24 µM; in experiment [4], 6.33 µM; in experiment [5], above 100 µM; in experiment [6], above 100 µM. For the same molecule, the values for the TGI in experiment [7], in [8] and in experiment [9] were above 100 µM, 3.41 µM and above 100 µM, respectively.
For the molecule `CN(C)C(=O)/N=C1\SC(=Nc2ccccc2)C(=Nc2ccccc2)N1c1ccc([N+](=O)[O-])cc1`, the TGI in experiment [1], in [2], in experiment [10], in experiment [3], in [5] and in [6] was above 100 µM throughout. Besides, the TGI in [7], in [8] and in [9] was above 100 µM in each case.
With `Clc1sc(Cl)c2c1[C@H](Br)C[C@@H]2Cl`, the TGI was above 100 µM in experiment [1]; above 100 µM in experiment [2]; above 100 µM in [10]; above 100 µM in [3]; above 100 µM in experiment [4]; 40.7 µM in experiment [6]. Also, the TGI in experiment [7], in experiment [8] and in experiment [9] was above 100 µM each time.
For `CCOC(=O)c1c(-c2ccc(OC)cc2)c(C#N)c(=S)n(C2OC(CO)C(O)C(O)C2O)c1C` (centres undefined), the TGI in experiment [1], in experiment [2], in [10], in experiment [4], in experiment [5] and in experiment [6] was above 100 µM in each case. The TGI in experiment [7], in [8] and in experiment [9] was above 100 µM throughout.
For `COc1ccc(CCn2ccc(=O)c(O)c2C)cc1OC`, the TGI in experiment [1] is above 100 µM; in [10], 43 µM; in experiment [3] it was 96.9 µM; in experiment [6], above 100 µM; in [7] it was above 100 µM; in experiment [8] it was 85.7 µM. In addition, the TGI in [9] was above 100 µM.
As for `CN1C2CCC1C(CO)C(=O)C2` (centres undefined), the TGI in [1] was above 100 µM; in experiment [2] it was above 100 µM; in experiment [10], above 100 µM; in experiment [3], 54.1 µM; in experiment [4] it was above 100 µM; in experiment [5], above 100 µM. In addition, the TGI was 75.3 µM in experiment [6], 48.1 µM in experiment [8] and above 100 µM in [9].
For the molecule `CCC1(c2ccc(OC)c(OC)c2)CCN2C(=O)C(O)CC21` (centres undefined), the TGI in experiment [1], in [2], in [10], in [4], in experiment [6] and in experiment [7] was above 100 µM each time. The TGI in experiment [8] and in [9] was above 100 µM in each case.
As for `O=C1C=CC(=O)c2c(O)c(N3CCN(c4ncccn4)CC3)c(Cl)c(O)c21`, the TGI in experiment [1] is 5.63 µM; in experiment [2], 3.47 µM; in experiment [10], 12.9 µM; in experiment [4], 3.69 µM; in experiment [5], 6.49 µM; in experiment [7], 19.8 µM. The TGI in experiment [8] amounted to 5.7 µM; in experiment [9], 25.5 µM.
Take `CCc1nc2c([nH]1)C(=O)c1ccccc1C2=O`: the TGI in [1], in experiment [2], in experiment [4], in experiment [5], in experiment [6] and in experiment [7] was above 100 µM each time. Besides, in [9], the TGI is above 100 µM.
`CC(=O)OC1COC(N2c3ccccc3[C@@H]3CCc4c([nH]c5ccccc45)[C@@H]32)C(OC(C)=O)C1OC(C)=O` (mixture of isomers): the TGI in experiment [1] was above 100 µM; in experiment [2], above 100 µM; in experiment [10], above 100 µM; in experiment [3], above 100 µM; in experiment [4], above 100 µM; in experiment [5], 62 µM. Also, the TGI in experiment [6], in [7] and in experiment [9] was above 100 µM throughout.
In the case of `Cc1ccc(S(=O)(=O)N2CCc3cc(O)c([N+](=O)[O-])cc32)cc1`, the TGI in experiment [1], in experiment [2], in [10], in experiment [4], in [5] and in [6] was above 100 µM each time. The TGI in [8] and in experiment [9] was above 100 µM in each case.
On to `O/N=C/[C@H]1COC2(CCCCC2)O1`, for which the TGI in experiment [1], in [2], in experiment [10], in experiment [3], in [4] and in experiment [5] was above 100 µM in each case. Further, the TGI in experiment [6], in [7] and in [9] was above 100 µM each time.
Turning to `CC(=O)Nc1ccc2c(c1)nc1c3ccccc3ccn21`, the TGI in [1], in experiment [2], in experiment [10], in [4], in experiment [5] and in [6] was above 100 µM throughout. In addition, the TGI in experiment [7], in experiment [8] and in experiment [9] was above 100 µM each time.
`O=C1CN(c2ccccc2)C(=O)C1C(=O)Nc1ccc(Cl)c(Cl)c1` (centres undefined): the TGI in experiment [1] was 6.33 µM; in experiment [4] it was 24.5 µM; in experiment [6] it was 13.1 µM; in experiment [7], 50.6 µM; in experiment [9], 14 µM.
With `Oc1ccc(C[C@@H]2CN[C@H](Cc3ccc(O)c(Br)c3)CN2)cc1`, the TGI in experiment [1], in [2], in experiment [10], in experiment [4], in [5] and in experiment [6] was above 100 µM throughout. For the same molecule, the TGI in experiment [7], in experiment [8] and in [9] was above 100 µM in each case.
